# Results reported in PMC4937655 (Journal of Drug Assessment, 2013).
# Entries after “also recorded” stand apart in the source; their conditions may differ. Where two headings read alike, the source gives them in different places.
# Tests used:
# [1] = Safety and tolerability, diltiazem study; format: in vivo, human
# Protocol: (§1) Safety and tolerability of ticagrelor alone and in the presence of diltiazem or ketoconazole were evaluated by assessment of adverse events (AEs), vital signs, electrocardiographic (ECG), physical examination, and laboratory parameters (clinical chemistry, hematology, and urinalysis) throughout the studies.
# [2] = Effect of ticagrelor on diltiazem pharmacokinetic parameters; format: in vivo, human; conditions: for Tmax: human, plasma, read-out: Median tmax (range); for Effect of ticagrelor on pharmacokinetic parameters: in words
# [3] = Ticagrelor-ketoconazole interaction study: pharmacokinetic parameters of ticagrelor and AR-C124910XX; conditions: for Cmax: po
# Protocol: (§2) Both studies were single-center, randomized, open-label studies with a two-period, in-patient, crossover design. For both studies, a low non-loading dose of ticagrelor (i.e., a single oral dose of 90 mg) was selected, so if an interaction occurred between ticagrelor and the CYP3A4 inhibitor, then the increase in ticagrelor plasma concentrations would minimize any safety issues. […] The approved dosing regimen of ticagrelor is 180 mg loading dose followed by 90 mg twice daily thereafter3,4.
# (§3) Figure 1 depicts the overall study design for both studies. At the start of each study, volunteers were randomized to one of two treatments (A or B). After the washout period, volunteers received the alternate dosing regimen. On the scheduled day, ticagrelor was co-administered with the CYP3A4 inhibitor in the morning after fasting for ≥10 hours followed by a further fast for ≥4 hours. Water was permitted ad libitum throughout each period except for 2 hours before and after ticagrelor administration.
# (§4) The limits of quantification (LOQ) for ticagrelor and AR-C124910XX were […], respectively28.
# (§5) Plasma concentration–time data were used to calculate Cmax, time to maximum concentration (tmax), AUC, and the terminal elimination half-life (t½). The latter was calculated as 0.693/λz, where λz is the terminal phase elimination rate constant, derived by least-squares regression analysis of the plasma concentration–time data obtained over the terminal log-linear phase. AUC was calculated using the linear trapezoidal method and extrapolated to infinity. AR-C124910XX:ticagrelor ratios for Cmax and AUC were calculated.
# (§6) Statistical analyses were conducted using SAS version 8 (SAS Institute, Cary, North Carolina, USA). Pharmacokinetic parameters were summarized by descriptive statistics. AUC and Cmax values for ticagrelor and AR-C124910XX were analyzed, following log-transformation, by analysis of variance with terms for treatment, period, and sequence, and the volunteer within sequence was included as a random effect. After exponentiation, geometric least square mean point estimates and 90% CIs for the ratio ticagrelor + CYP3A4 inhibitor/ticagrelor alone were calculated. The pre-specified limits for the 90% CI values indicating no interaction between ticagrelor and either CYP3A4 inhibitor were 0.7–1.43.
# [4] = Ticagrelor-diltiazem interaction study: pharmacokinetic parameters of ticagrelor and AR-C124910XX; conditions: for Cmax: po
# Protocol: as §2, §3, §4, §5, §6
# [5] = parameters: method as in PMID 20551239, PMID 20091161, PMID 20642549, PMID 16476694, PMID 17980251; conditions: cited from earlier work
# [6] = parameters: method as in PMID 20091161; conditions: single oral dose of ticagrelor 100 mg; healthy volunteers n = 9; cited from earlier work
# platelet aggregation = test system: platelet aggregation; parameters: method as in AstraZeneca, data on file; conditions: ref AstraZeneca, data on file; cited from earlier work
# CYP3A [7] = conditions: cited from earlier work
# [8] = Effect of ticagrelor on ketoconazole steady-state plasma concentrations; format: in vivo, human; conditions: for Plasma concentration, mean (% CV; range): ketoconazole 200 mg twice daily
# Protocol: as §2, §4, §5
# [9] = cited from earlier work
# CYP3A [10] = test system: CYP3A; parameters: method as in PMID 21177984; conditions: cited from earlier work; for Inhibition of CYP3A activity in vitro: in words
# P-glycoprotein = conditions: ref 18 (AstraZeneca, data on file); cited from earlier work
# [11] = parameters: method as in PMID 19717846; conditions: ticagrelor + aspirin compared with clopidogrel + aspirin; patients with ACS; cited from earlier work
# [12] = parameters: method as in PMID 16476694; conditions: 28 days, cited from earlier work
# [13] = Safety and tolerability, ketoconazole study; format: in vivo, human
# Protocol: as §1
# [14] = cited from earlier work; remark: listed apart in the source
# [15] = single dose 900 mg, healthy volunteers n = 6
# [16] = ketoconazole co-administration vs ticagrelor alone
# [17] = ticagrelor + ketoconazole/ticagrelor alone
# [18] = diltiazem co-administration vs ticagrelor alone
# [19] = ticagrelor + diltiazem/ticagrelor alone
smiles,measurement,setting,value
"COc1ccc([C@@H]2Sc3ccccc3N(CCN(C)C)C(=O)[C@@H]2OC(C)=O)cc1 [diltiazem, Diltiazem]",Abnormal ECG evaluations of first-degree atria-ventricular block,[1]; in vivo,two volunteers
same,Systolic and diastolic blood pressure compared to baseline,[1]; in vivo,marginal decrease
same,Tmax,[2]; diltiazem + ticagrelor,10 h
same,Tmax,[2]; diltiazem alone,8 h
same,Effect of ticagrelor on pharmacokinetic parameters,[2],no effect; also recorded: did not affect
same,Effect of ticagrelor on pharmacokinetic parameters,[2]; listed as Diltiazem,not significantly affected
CCCSc1nc(N[C@@H]2C[C@H]2c2ccc(F)c(F)c2)c2nnn([C@@H]3C[C@H](O)[C@@H](O)[C@H]3O)c2n1 [AR-C124910XX],Metabolite:parent AUC ratio,"[3]; human, in vivo",0.49 (24)
same,Metabolite:parent Cmax ratio,"[3]; human, in vivo",0.32 (22)
same,AUC,"[3]; human, in vivo, 90 mg",1769 (28) ng·h/mL
same,Tmax,"[3]; human, in vivo, 90 mg",2.0 (2.0–4.0) h
same,t½,"[3]; human, in vivo, 90 mg",8.0 (6.3–16.7) h
same,Cmax,"[3]; human, in vivo",207 (29) ng/mL
same,Metabolite:parent AUC ratio,"[4]; human, in vivo",0.4 (39)
same,Metabolite:parent Cmax ratio,"[4]; human, in vivo",0.3 (36)
same,AUC,"[4]; human, in vivo, 90 mg",1630 (29) ng·h/mL
same,Tmax,"[4]; human, in vivo, 90 mg",3.0 (2.0–4.0) h
same,t½,"[4]; human, in vivo, 90 mg",8.4 (1.3) h
same,Cmax,"[4]; human, in vivo",173 (38) ng/mL
same,Metabolite level as share of the levels of ticagrelor,[5],30–40%
same,"AUC, mean ± standard deviation",[6],1460 ± 408 ng·h/mL
same,Potency in inhibiting platelet aggregation relative to ticagrelor,platelet aggregation,approximately equipotent
CC(=O)N1CCN(c2ccc(OCC3COC(Cn4ccnc4)(c4ccc(Cl)cc4Cl)O3)cc2)CC1 (stereo not drawn) [ketoconazole],CYP3A substrate status,CYP3A [7],substrates for CYP3A
same,Classification as CYP3A inhibitor,CYP3A [7],strong CYP3A inhibitor
same,Effect of ticagrelor on steady-state plasma concentrations / pharmacokinetic parameters,[8]; in words,not significantly affected; also recorded: did not affect
same,"Plasma concentration, mean (% CV; range)",[8]; 12 hours post-dosing with ticagrelor on day 4,1271 (84;334–4150) ng/mL
same,"Plasma concentration, mean (% CV; range)","[8]; pre-dosing on day 4, absence of ticagrelor",1410 (73; 396–3540) ng/mL
CCCSc1nc(N[C@@H]2C[C@H]2c2ccc(F)c(F)c2)c2nnn([C@@H]3C[C@H](OCCO)[C@@H](O)[C@H]3O)c2n1 [Ticagrelor],Maximum tolerated single dose,[9]; healthy volunteers,900 mg
same,"AUC, mean [% CV]",[9]; [15],"39,153 [38] ng·h/mL"
same,Bleeding-related AEs,[9]; [15],no bleeding-related AEs
same,"Cmax, mean [% CV]",[9]; [15],5153 [42] ng/mL
same,Deaths or serious AEs,[1]; diltiazem study,No deaths or serious AEs
same,Bleeding events,[1]; in vivo,No such events
same,AEs reported,"[1]; in vivo, po",No AEs
same,Increase in AUC,[3]; co-administration of ketoconazole,≥ 5 fold
same,AUC,"[3]; human, plasma, oral, 90 mg",3640 ng·h/mL
same,Tmax,"[3]; human, plasma, oral, 90 mg",2 h
same,half-life,"[3]; human, plasma, oral, 90 mg",7.1 h
same,Cmax,"[3]; human, plasma, 90 mg",654 ng/mL
same,Increase in AUC,[3]; [16],632%
same,Increase in Cmax,[3]; [16],135%
same,Half-life increased to (relative to ticagrelor alone),[3]; presence of ketoconazole,approximately 362%
same,AUC GLS mean ratio: point estimate (90% CI),[3]; [17],7.32 (6.43–8.34)
same,Cmax GLS mean ratio: point estimate (90% CI),[3]; [17],2.35 (2.13–2.60)
same,Increase in AUC,[4]; [18],174%
same,Increase in Cmax,[4]; [18],69%
same,Increase in half-life,[4]; [18],96%
same,AUC,"[4]; human, plasma, oral, 90 mg",3700 ng·h/mL
same,Tmax,"[4]; human, plasma, oral, 90 mg",2 h
same,half-life,"[4]; human, plasma, oral, 90 mg",8.3 h
same,Cmax,"[4]; human, plasma, 90 mg",519 ng/mL
same,Effect of diltiazem on median tmax,[4]; in words,unaffected
same,AUC GLS mean ratio: point estimate (90% CI),[4]; [19],2.74 (2.40–3.13)
same,Cmax GLS mean ratio: point estimate (90% CI),[4]; [19],1.69 (1.47–1.95)
same,Metabolism by CYP3A,CYP3A [10]; human liver microsomes / in vitro,principally metabolized by CYP3A; also recorded: substrate
same,Inhibition of CYP3A activity in vitro,CYP3A [10],weak-to-moderate inhibitor
same,Inhibition of CYP3A activity in vitro,CYP3A [10]; listed as ticagrelor,weak inhibitor
same,P-glycoprotein substrate status,P-glycoprotein,substrate
same,Rate of myocardial infarction/stroke/death from vascular causes,[11],significantly reduced
same,"AUC, mean ± standard deviation",[6],3683 ± 753 ng·h/mL
same,Mean AUC,"[12]; 100 mg ticagrelor twice daily, CV 45%",5337 ng·h/mL
same,Mean AUC,"[12]; 200 mg ticagrelor twice daily, CV 39%","15,104 ng·h/mL"
same,Increase in exposure,[12]; 200 mg vs 100 mg twice daily,283%
same,AEs,[13]; in vivo,five AEs
same,Deaths or serious AEs,[13]; ketoconazole study,No deaths or serious AEs
same,Total bleeding events: number of events (Kaplan–Meier event rates),"[14]; 90 mg twice daily, through week 4",32 (9.8)
same,Total bleeding events: number of events (Kaplan–Meier event rates),"[14]; 90 mg twice daily, through week 12",34 (10.9)
same,Mean AUC ± SD,"[14]; 90 mg twice daily, week 4",4762 ± 2443 ng·h/mL
same,Total bleeding events: number of events (Kaplan–Meier event rates),"[14]; 180 mg twice daily, through week 4",25 (8.0)
same,Total bleeding events: number of events (Kaplan–Meier event rates),"[14]; 180 mg twice daily, through week 12",33 (11.4)
same,Mean AUC ± SD,"[14]; 180 mg twice daily, week 4","13,198 ± 4982 ng·h/mL"
same,Inhibition of platelet aggregation (IPA),[14]; 180 mg vs 90 mg twice daily,dose-dependent increase
same,Increase in ticagrelor exposure,"[14]; 180 mg vs 90 mg twice daily, week 4",277%
